“And” between values parts separate entries of the source, which are not always exact repeats. Equal entries are not always repeated. Values belong to the compound of their own block, whether it stands above or below them.
Test system: 439559-082-T-J2-PDC complex spheroid growth
Test: Anticancer human tumor 439559-082-T-J2-PDC patient-derived colon adenocarcinoma cell line growth inhibition [Asc]
Settings: for viability, T/C: stronger effect = lower value
Experimental: Multicellular complex tumor spheroid response to apoptosis pathway targeting inhibitors Alrizomadlin, Pelcitoclax, and Dasminapant in combination with a variety of drugs and investigational agents in selected tumor cell lines
The MDM2 inhibitor alrizomadlin, the Bcl-2/Bcl-xL inhibitor pelcitoclax, and the IAPs inhibitor dasminapant were evaluated both individually and in combination with standard of care and investigational anticancer small molecules within a complex spheroid model of solid tumors. . Complex spheroids include a stromal component modeled by human endothelial cells (HUVEC) and fibroblasts modeled by human mesenchymal stem cells (MSCs). The concentration ranges selected for each drug and investigational agent were based upon clinically achievable concentrations if the clinical Cmax of the agent was known.
Compounds. The drugs and investigational agents: alrizomadlin (APG-115; NSC831270), pelcitoclax (APG-1252; NSC835773), dasminapant (APG-1387;NSC834197), TAK-243 (NSC785004), copanlisib (NSC809693), olaparib (NSC753686), talazoparib (NSC767125), cobimetinib (NSC 768068), eltanexor (KPT-8602, NSC 794443), abemaciclib (NSC 768073), sotorasib (NSC818433), adagrasib (NSC 831453), MRTX-1133 (NSC 836407), Iadademestat (ORY1001, NSC 806812), and RMC-4630 (NSC839698), were obtained from the NCI Developmental Therapeutics Program Chemical Repository. The FDA-approved anticancer drug set is available from the Developmental Therapeutics Program at https://dtp.cancer.gov/organization/dscb/obtaining/available plates.htm. […] The stock solutions were prepared in dimethyl sulfoxide (DMSO, Sigma-Aldrich, St. Louis, MO, cat. D2650) at 800-fold the tested concentration and stored at -70 degrees C prior to their use. All drugs and investigational agents were tested over a range starting from a high concentration at or near the clinical Cmax and decreasing in half-log increments. If the clinical Cmax for an agent had not been determined, the highest concentration tested was 10 microM.
The patient-derived cancer (PDC) cell lines include five colon adenocarcinomas: 186277-243-T-J2-PDC, 616215-338-R-J1-PDC, 439559-082-T-J2-PDC, 463943-066-T-J2-PDC, and 519858-162-T-J1-PDC; three pancreatic carcinomas: 323965-272-R-J2-PDC, 521955-158-R6-J3-PDC, and 521955-158-R2-J5-PDC; two uterine sarcomas: 327498-152-R-J2-PDC and 993429-296-R-J1-PDC; two rhabdomyosarcomas: 755483-174-R-J1-PDC and 772245-204-R-J1-PDC; two soft tissue sarcomas: 126254-015-R-J1-PDC and 494315-158-R-J1-PDC; two malignant fibrous histiocytomas: 317291-083-R-J1-PDC and 596521-263-R-J1-PDC; two breast carcinomas: 171881-019-R-J1-PDC and 885512-296-R-J2-PDC; and one ovarian carcinoma: 6556581-035-R-J-PDC were obtained from the NCI PDMR, (https://pdmr.cancer.gov). The established cell lines HSSY-2 synovial sarcoma (RRID:CVCL 8719), SYO-1 synovial sarcoma (RRID:CVCL_7146), MPNST malignant peripheral neural sheath tumor were obtained from the Sloan Kettering Institute. The following established cell lines were purchased from the American Type Culture Collection (ATCC, Manassas, VA), Sor the received from the NCI repository:, PANC-1 pancreatic carcinoma (CRL-1469, RRID:CVCL_0480), OVCAR-5 ovarian carcinoma (RRID:CVCL_1628), OVCAR-8 ovarian carcinoma (RRID:CVCL_1629), , MCF-7 breast carcinoma (CRL-12584, RRID:CVCL_0031), MDA-MB-231 breast carcinoma (CRL-12532, RRID:CVCL_0062), NCI-H1876 small cell lung carcinoma (CRL-5902, RRID:CVCL_1503), NCI-H510A small cell lung carcinoma (HTB-184, RRID:CVCL_1565), NCI-H1417 (CRL-5869, RRID:CVCL_1469), and NCI-H196 small cell lung carcinoma (CRL-5823, RRID:CVCL_1509). Dr. Peter Houghton (Greehey Children's Cancer Research Institute, University of Texas Health Science Center, San Antonio, TX) provided Rh-18 rhabdomyosarcoma (RRID:CVCL_1659). Pooled donor human umbilical vein endothelial cells (HUVEC, Lonza, cat. CC-2519) and human mesenchymal stem cells (hMSC, Lonza, cat. PT-2501) were purchased from Lonza (Walkersville, MD).
Cell Culture. […]
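Also: spheroids exposed to agents for 7 days starting day 3 after seeding.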
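For viability, T/C in this document: percent of DMSO vehicle control viability with 100% = vehicle.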

IC50 (curve of first compound, second compound 0.00316 µM): < 0.316 nM
IC50 (curve of first compound, second compound 0.01 µM): > 100 nM
IC50 (curve of first compound, second compound 0.0316 µM): > 100 nM
IC50 (curve of first compound, second compound 0.1 µM): > 100 nM
IC50 (curve of first compound, second compound 0.316 µM): > 100 nM
IC50 (curve of first compound, second compound 1 µM): > 100 nM
Compound: Cn1ncnc1[C@H]1c2n[nH]c(=O)c3cc(F)cc(c23)N[C@@H]1c1ccc(F)cc1 + CNC(C)C(=O)NC1CN(S(=O)(=O)c2cccc(S(=O)(=O)N3CCC4CCC(C(=O)NC(c5ccccc5)c5ccccc5)N4C(=O)C(NC(=O)C(C)NC)C3)c2)CCC2CCC(C(=O)NC(c3ccccc3)c3ccccc3)N2C1=O
viability, T/C (second compound 0.00316 µM, first compound 0.000316 µM): 46.7%
viability, T/C (second compound 0.00316 µM, first compound 0.001 µM): 41.6%
viability, T/C (second compound 0.00316 µM, first compound 0.00316 µM): 38.5%
viability, T/C (second compound 0.00316 µM, first compound 0.01 µM): 46.7%
viability, T/C (second compound 0.00316 µM, first compound 0.0316 µM): 56.8%
viability, T/C (second compound 0.00316 µM, first compound 0.1 µM): 45%
viability, T/C (second compound 0.01 µM, first compound 0.000316 µM): 101%
viability, T/C (second compound 0.01 µM, first compound 0.001 µM): 101%
viability, T/C (second compound 0.01 µM, first compound 0.00316 µM): 105%
viability, T/C (second compound 0.01 µM, first compound 0.01 µM): 89%
viability, T/C (second compound 0.01 µM, first compound 0.0316 µM): 95.2%
viability, T/C (second compound 0.01 µM, first compound 0.1 µM): 89.1%
viability, T/C (second compound 0.0316 µM, first compound 0.000316 µM): 102%
viability, T/C (second compound 0.0316 µM, first compound 0.001 µM): 94.8%
viability, T/C (second compound 0.0316 µM, first compound 0.00316 µM): 101%
viability, T/C (second compound 0.0316 µM, first compound 0.01 µM): 88.9%
viability, T/C (second compound 0.0316 µM, first compound 0.0316 µM): 104%
viability, T/C (second compound 0.0316 µM, first compound 0.1 µM): 104%
viability, T/C (second compound 0.1 µM, first compound 0.000316 µM): 93.4%
viability, T/C (second compound 0.1 µM, first compound 0.001 µM): 101%
viability, T/C (second compound 0.1 µM, first compound 0.00316 µM): 97.2%
viability, T/C (second compound 0.1 µM, first compound 0.01 µM): 92.4%
viability, T/C (second compound 0.1 µM, first compound 0.0316 µM): 103%
viability, T/C (second compound 0.1 µM, first compound 0.1 µM): 104%
viability, T/C (second compound 0.316 µM, first compound 0.000316 µM): 99.8%
viability, T/C (second compound 0.316 µM, first compound 0.001 µM): 93.5%
viability, T/C (second compound 0.316 µM, first compound 0.00316 µM): 93.1%
viability, T/C (second compound 0.316 µM, first compound 0.01 µM): 88.1%
viability, T/C (second compound 0.316 µM, first compound 0.0316 µM): 97%
viability, T/C (second compound 0.316 µM, first compound 0.1 µM): 99.7%
viability, T/C (second compound 1 µM, first compound 0.000316 µM): 74.5%
viability, T/C (second compound 1 µM, first compound 0.001 µM): 72.2%
viability, T/C (second compound 1 µM, first compound 0.00316 µM): 79.5%
viability, T/C (second compound 1 µM, first compound 0.01 µM): 80.8%
viability, T/C (second compound 1 µM, first compound 0.0316 µM): 87%
viability, T/C (second compound 1 µM, first compound 0.1 µM): 81.6%

IC50 (curve of compound): 334 nM and 240 nM and 307 nM
Compound: O=C(c1ccc(F)c(F)c1Nc1ccc(I)cc1F)N1CC(O)([C@@H]2CCCCN2)C1
viability, T/C (compound 0.00316 µM): 101% and 106% (2×)
viability, T/C (compound 0.01 µM): 95.1% and 106% and 95.4%
viability, T/C (compound 0.0316 µM): 96.9% and 81.6% and 88.7%
viability, T/C (compound 0.1 µM): 63.6% and 60.9% and 69.5%
viability, T/C (compound 0.316 µM): 58% and 50.6% and 49.3%
viability, T/C (compound 1 µM): 13.8% and 24.2% and 28.6%

IC50 (curve of first compound, second compound 0.03 µM): > 1000 nM
IC50 (curve of first compound, second compound 0.0949 µM): > 1000 nM
IC50 (curve of first compound, second compound 0.3 µM): > 1000 nM
IC50 (curve of first compound, second compound 0.949 µM): > 1000 nM
IC50 (curve of first compound, second compound 3 µM): > 1000 nM
Compound: COc1c(OCCCN2CCOCC2)ccc2c3n(c(=NC(=O)c4cnc(N)nc4)nc12)CCN3 + CCN1C(C(=O)NC23CCC(C(=O)O)(CC2)CC3)C(c2cccc(Cl)c2F)C2(C(=O)Nc3cc(Cl)ccc32)C12CCCCC2
viability, T/C (second compound 0.03 µM, first compound 0.00316 µM): 98.5%
viability, T/C (second compound 0.03 µM, first compound 0.01 µM): 98.3%
viability, T/C (second compound 0.03 µM, first compound 0.0316 µM): 94.1%
viability, T/C (second compound 0.03 µM, first compound 0.1 µM): 71.7%
viability, T/C (second compound 0.03 µM, first compound 0.316 µM): 63.3%
viability, T/C (second compound 0.03 µM, first compound 1 µM): 57.4%
viability, T/C (second compound 0.0949 µM, first compound 0.00316 µM): 96.4%
viability, T/C (second compound 0.0949 µM, first compound 0.01 µM): 96.9%
viability, T/C (second compound 0.0949 µM, first compound 0.0316 µM): 90.7%
viability, T/C (second compound 0.0949 µM, first compound 0.1 µM): 69%
viability, T/C (second compound 0.0949 µM, first compound 0.316 µM): 67.3%
viability, T/C (second compound 0.0949 µM, first compound 1 µM): 60.8%
viability, T/C (second compound 0.3 µM, first compound 0.00316 µM): 88.9%
viability, T/C (second compound 0.3 µM, first compound 0.01 µM): 99.9%
viability, T/C (second compound 0.3 µM, first compound 0.0316 µM): 89.4%
viability, T/C (second compound 0.3 µM, first compound 0.1 µM): 68.7%
viability, T/C (second compound 0.3 µM, first compound 0.316 µM): 59.7%
viability, T/C (second compound 0.3 µM, first compound 1 µM): 60.9%
viability, T/C (second compound 0.949 µM, first compound 0.00316 µM): 95.8%
viability, T/C (second compound 0.949 µM, first compound 0.01 µM): 98.3%
viability, T/C (second compound 0.949 µM, first compound 0.0316 µM): 96.6%
viability, T/C (second compound 0.949 µM, first compound 0.1 µM): 69.5%
viability, T/C (second compound 0.949 µM, first compound 0.316 µM): 60.6%
viability, T/C (second compound 0.949 µM, first compound 1 µM): 63.1%
viability, T/C (second compound 3 µM, first compound 0.00316 µM): 80.1%
viability, T/C (second compound 3 µM, first compound 0.01 µM): 83.8%
viability, T/C (second compound 3 µM, first compound 0.0316 µM): 93.2%
viability, T/C (second compound 3 µM, first compound 0.1 µM): 63%
viability, T/C (second compound 3 µM, first compound 0.316 µM): 59%
viability, T/C (second compound 3 µM, first compound 1 µM): 55.2%

From PubChem BioAssay AID1963423 (Molecular Pharmacology Branch, DTP, NCI, 2024)
